Assay results as given in US6685935B1 (priority 1995, dated 2004).
Like-named read-outs stand apart in the source and are kept apart here.

Assays:
[1] = system: Cloudman S91 melanoma/macrophage hybrid #48 tumors in DBA/2J mice
[2] = system: B16F10 melanoma cells; assay type: cell-based, mouse
Description: FIG. 11-F is a graph showing the growth of B16F10 melanoma cells in monolayer culture in the presence or absence of ganciclovir at 10 μg/ml or 25 μg/ml.

[3] = system: B16F10 melanoma in C57B6 mice; assay type: in vivo, mouse
Description: C57B6 mice were inoculated s.c., left shoulder region, with […] B16F10 melanoma cells from culture. […] At 18 days post-tumor implantation (10 days post bacterial inoculation) all animals were given enrofloxacin antibiotic, 0.2 mg/ml, in their drinking water (BAYTRIL™) and maintained with this antibiotic supplement for 2 weeks. Tumor growth was assessed by caliper measurements and computed as volume in mm^3. Animals were euthanized and listed as dead when the sum of their tumor measurements, length+width+height, reached 60 mm, or when they became moribund (listless, cessation of drinking).
C57B6 female mice, 5-7 weeks old, were inoculated s.c. in the left shoulder region with 5×10^5 B16F10 melanoma cells grown in culture. […] Tumor growth was assessed with periodic caliper measurements of tumor length, width and height, and computed as tumor volume in mm^3. Results of tumor growth, shown in FIGS. 16A-D represent the averages±SD for 5 animals/group with 5/5 animals surviving. After the point at which one or more animals died within a group, the average tumor sizes of the surviving animals were no longer shown when the data were plotted as shown in FIGS. 16A-D.
The animals were allowed to eat and drink ad libitum. Twenty-three days (Experiment #1) or 10 days (Experiment #2) following inoculation of bacteria, both control and bacteria treated mice were given Baytril™ (enrofloxacin, 0.2 mg/ml drinking water) and maintained on this antibiotic for a total of 2 weeks. In Experiment #1 the times at which the mice became moribund (listless, cessation of drinking) or died, were noted. The results are presented in Table 20(F) as the average survival±SD for the conditions tested. In Experiment #2 animals were sacrificed when the tumor reached 4 g and listed with the other dead as described in Experiment #1. The two different methods for assessing survival accounted for a somewhat shorter survival time for control animals in Experiment #2 (26 days) as compared to Experiment #1 (28 days).

[4] = system: C57B6 mice; details: mouse, in vivo, ip

Q: Which results are given for `Nc1nc(O)c2ncn(COC(CO)CO)c2n1` [ganciclovir, ganciclovir sodium]?
A: side-effects of ganciclovir treatment ([1]; 2.5 mg i.p. four times over 3 days, no bacteria): little or no side-effects; Mean Tumor Doubling Time ([1]; 3×10^5 c.f.u. bacteria i.p., ganciclovir 2.0 mg, 6 inoculations over 5 days): 94 h; proliferation of B16F10 melanoma cells in culture ([2]; GCV 10 μg/ml): not; proliferation of B16F10 melanoma cells in culture ([2]; GCV 25 μg/ml): significantly suppressed; Time Days ± S.D. ([3]; GCV 3.75 mg, no bacteria): 27 ± 1 days; Treated/Control T/C ([3]; GCV 3.75 mg, no bacteria): 1.1; effect on tumor volume ([3]; GCV 3.75 mg-10 mg/mouse days 11-12, no bacteria): small reduction in tumor volume

Q: For `CCN1CCN(c2cc3c(cc2F)c(=O)c(C(=O)O)cn3C2CC2)CC1` [enrofloxacin, 1-cyclopropyl-7-(4-ethyl-1-piperazinyl)-6-fluoro-1,4-dihydro-4-oxo-3-quinolinecarboxylic acid], which “Avg. time of Death ± S.D.” value [4] is on record?
A: The value was greater than 21 days.
